In experiment [1] the target is T1, Btk enzyme (His-Btk) (Homo sapiens, UniProt Q06187).
T1 construct: His; purchased Millipore 14-552
Nature of the experiment: Btk enzyme activity, IMAP fluorescence polarization assay. Format: biochemical. The conditions noted are these: 60 min pre-incubation, 5 μM ATP (Km). The text has this:
Inhibition of kinase activity can be measured using the Immobilized Metal Assay for Phosphochemicals (IMAP) assay. IMAP is a homogeneous fluorescence polarization (FP) assay based on affinity capture of phosphorylated peptide substrates. IMAP uses fluorescein-labeled peptide substrates that, upon phosphorylation by a protein kinase, bind to so-called IMAP nanoparticles, which are derivatized with trivalent metal complexes. Binding causes a change in the rate of the molecular motion of the peptide, and results in an increase in the FP value observed for the fluorescein label attached to the substrate peptide (Gaudet et al. A homogeneous fluorescence polarization assay adaptable for a range of protein serine/threonine and tyrosine kinases. J. Biomol. Screen (2003) 8, 164-175).
Btk enzyme activity is measured using the IMAP (immobilized metal ion affinity-based fluorescence polarization) assay as outlined below.
Btk enzyme (His-Btk (Millipore catalog#14-552), is diluted to 0.4 U/mL in KR buffer (10 mM Tris-HCl, 10 mM MgCl2, 0.01% Tween-20, 0.05% NaN3, 1 mM DTT, 2 mM MnCl2, pH 7.2).
Serial dilution log 10 from 2 mM to 63.2 nM of test compounds are made in 100% DMSO. The dilutions in DMSO are then diluted 50-fold in KR-buffer. Final compound concentration range in the assay from 10 μM to 0.316 nM.
5 μL/well of test compound in KR buffer (final DMSO concentration in the assay is 1%) is mixed with 5 μl/well of 0.4 U/mL Btk enzyme (final concentration in the assay is 0.1 U/mL). Test compounds and Btk enzyme are pre-incubated 60 minutes at room temperature, before adding 5 μL/well of 200 nM Fluorescin labeled substrate peptide (Blk/Lyntide substrate, e.g. #R7188/#R7233, Molecular Devices) in KR-buffer. Final peptide substrate concentration in assay is 50 nM. The kinase assay is started by adding 5 μL/well of 20 μM ATP in KR-buffer (final ATP concentration is 5 μM ATP, Km ATP in Btk IMAP assay). Following incubation for 2 h at room temperature the enzyme reaction is stopped by adding 40 μL/well IMAP Progressive Binding Solution (according to suppliers (Molecular Devices) protocol using 75% 1× buffer A and 25% 1× buffer B with 1:600 Progressive Binding Solution). After 60 min incubation at room temperature in the dark the FP signal is read. Fluorescence at 535 nm is measured using parallel and perpendicular filters to determine differences in rotation due to binding of the phosphorylated substrate peptide to the beads. Values are calculated as percentage of the difference in readout (ΔmPi) of the controls with and without ATP. EC50 values are determined by curve fitting of the experimental results using Activity Base.
For orientation: Fluorescence polarisation rises when a labelled molecule tumbles more slowly, as on binding a larger partner.

The target of experiment [2] is T2, Src enzyme (Homo sapiens, UniProt P12931).
T2 construct: purchased Millipore 14-326
As to the kind of experiment: Src enzyme activity, IMAP fluorescence polarization assay. The experiment is classed as biochemical. The note with it: 60 min pre-incubation, 4 μM ATP (Km). The method in brief:
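Src at 0.2 U/mL final, pre-incubated 60 min at RT with compound (10 μM to 0.316 nM final, 1% DMSO) in pH 7.2 Tris/Mg/Mn buffer. Reaction with 100 nM fluorescein-p34cdc2 peptide and 4 μM ATP (Km) ran 2 h at RT, then IMAP binding and FP at 535 nm. EC50 from curve fit of % control.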

A value given as a limit tells only on which side of the number the result lay.

A word on the EC50: it is the concentration giving half of the maximal effect. A high value points to a less potent agent.

T1 sequence (Q06187 whole entry): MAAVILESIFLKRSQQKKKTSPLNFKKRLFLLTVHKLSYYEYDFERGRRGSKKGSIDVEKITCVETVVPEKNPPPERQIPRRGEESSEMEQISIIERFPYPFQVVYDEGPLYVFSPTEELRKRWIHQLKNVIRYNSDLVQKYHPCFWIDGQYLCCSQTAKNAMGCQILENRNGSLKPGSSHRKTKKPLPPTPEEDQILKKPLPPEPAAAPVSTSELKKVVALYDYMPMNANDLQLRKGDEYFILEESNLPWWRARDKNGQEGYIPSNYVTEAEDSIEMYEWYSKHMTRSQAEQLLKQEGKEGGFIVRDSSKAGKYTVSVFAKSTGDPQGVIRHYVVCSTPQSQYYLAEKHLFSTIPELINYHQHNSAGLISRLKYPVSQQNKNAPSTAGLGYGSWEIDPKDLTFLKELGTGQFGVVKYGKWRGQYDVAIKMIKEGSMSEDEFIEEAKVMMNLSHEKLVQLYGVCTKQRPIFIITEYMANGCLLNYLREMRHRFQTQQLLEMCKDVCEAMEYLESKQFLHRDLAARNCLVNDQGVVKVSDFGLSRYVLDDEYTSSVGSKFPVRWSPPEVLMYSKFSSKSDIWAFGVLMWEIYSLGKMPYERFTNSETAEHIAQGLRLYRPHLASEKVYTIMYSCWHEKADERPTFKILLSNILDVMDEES
T2 sequence (P12931 whole entry): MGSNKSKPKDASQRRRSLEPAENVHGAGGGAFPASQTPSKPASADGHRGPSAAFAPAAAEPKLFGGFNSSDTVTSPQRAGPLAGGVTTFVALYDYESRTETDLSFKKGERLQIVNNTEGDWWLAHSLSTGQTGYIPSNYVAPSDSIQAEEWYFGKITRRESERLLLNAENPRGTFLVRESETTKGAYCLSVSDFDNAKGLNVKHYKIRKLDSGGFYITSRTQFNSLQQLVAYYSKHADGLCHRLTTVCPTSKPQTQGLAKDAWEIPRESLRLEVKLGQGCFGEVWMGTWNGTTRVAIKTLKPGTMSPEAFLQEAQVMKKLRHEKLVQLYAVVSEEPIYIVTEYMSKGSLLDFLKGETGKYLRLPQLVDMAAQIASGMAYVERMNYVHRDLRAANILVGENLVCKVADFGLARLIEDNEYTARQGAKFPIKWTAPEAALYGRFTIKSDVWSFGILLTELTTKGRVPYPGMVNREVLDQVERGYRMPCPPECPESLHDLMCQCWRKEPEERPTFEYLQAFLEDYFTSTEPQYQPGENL

Regarding `Cc1nccn2c([C@@H]3CCCCN3C(=O)/C=C/CN(C)C)nc(-c3ccc(C(=O)Nc4cc(C(F)(F)F)ccn4)cc3)c12` [Example 37, (S,E)-4-(3-(1-(4-(dimethylamino)but-2-enoyl)piperidin-2-yl)-8-methylimidazo[1,5-a]pyrazin-1-yl)-N-(4-(trifluoromethyl)pyridin-2-yl)benzamide], the EC50 in experiment [1] (bin bounds given in nM) is less than 10 nM; in experiment [2], no less than 1000 nM.
For the compound `C=CC(=O)N1CCC[C@H]1c1nc(-c2ccc(C(=O)Nc3ccccn3)cc2)c2c(C)nccn12` [Example 19, (S)-4-(3-(1-acryloylpyrrolidin-2-yl)-8-methylimidazo[1,5-a]pyrazin-1-yl)-N-(pyridin-2-yl)benzamide], the 50% effective concentration (EC50) in experiment [1] (bin bounds given in nM) is less than 10 nM; in experiment [2], no less than 1000 nM.
Consider `CC#CC(=O)N1CCC[C@H]1c1nc(-c2ccc(C(=O)Nc3cc(C)ccn3)cc2)c2c(C)nccn12` [Example 15, (S)-4-(3-(1-but-2-ynoylpyrrolidin-2-yl)-8-methylimidazo[1,5-a]pyrazin-1-yl)-N-(4-methylpyridin-2-yl)benzamide], for which the EC50 in experiment [1] (bin bounds given in nM) is no less than 100 nM; in experiment [1] (bounds given in μM), less than 1000 nM; in experiment [2], no less than 1000 nM.
As for `CCCc1ccnc(NC(=O)c2ccc(-c3nc([C@@H]4CCCCN4C(=O)/C=C/CN(C)C)n4ccnc(C)c34)cc2)c1` [Example 3, (S,E)-4-(3-(1-(4-(Dimethylamino)but-2-enoyl)piperidin-2-yl)-8-methylimidazo[1,5-a]pyrazin-1-yl)-N-(4-propylpyridin-2-yl)benzamide], the figures for the EC50 in experiment [1] (bin bounds given in nM) and in experiment [2] were less than 10 nM and no less than 1000 nM, respectively.
Turning to `CC#CC(=O)N(C)[C@@H](C)c1nc(-c2ccc(C(=O)Nc3cc(CCC)ccn3)cc2)c2c(C)nccn12` [Example 24, (S)-4-(8-methyl-3-(1-(N-methylbut-2-ynamido)ethyl)imidazo[1,5-a]pyrazin-1-yl)-N-(4-propylpyridin-2-yl)benzamide], the figures for the EC50 in experiment [1] (bin bounds given in nM) and in experiment [2] were less than 10 nM and no less than 1000 nM, respectively.
`CC#CC(=O)N[C@@H](C)c1nc(-c2ccc(C(=O)Nc3cc(CCC)ccn3)cc2)c2c(C)nccn12` [Example 38, (S)-4-(3-(1-but-2-ynamidoethyl)-8-methylimidazo[1,5-a]pyrazin-1-yl)-N-(4-propylpyridin-2-yl)benzamide]: the EC50 was less than 10 nM in experiment [1] (bin bounds given in nM) and no less than 1000 nM in experiment [2].
`C=CS(=O)(=O)N1CCCC[C@H]1c1nc(-c2ccc(C(=O)Nc3cc(CCC)ccn3)cc2)c2c(C)nccn12` [Example 4, (S)-4-(8-Methyl-3-(1-(vinylsulfonyl)piperidin-2-yl)imidazo[1,5-a]pyrazin-1-yl)-N-(4-propylpyridin-2-yl)benzamide]: the figures for the EC50 in experiment [1] (bin bounds given in nM) and in experiment [2] were less than 10 nM and no less than 1000 nM, respectively.

Source of the values: patent US20140155406A1, “4-IMIDAZOPYRIDAZIN-1-YL-BENZAMIDES AND 4-IMIDAZOTRIAZIN-1-YL-BENZAMIDES BTK INHIBITORS” (priority 2011, published 2014).
